Values quoted from earlier work, collected in patent US9029390B2, “Oral composition containing an antiplatelet agent of the thienopyridine family in the form of free base” (CLL Pharma, priority 2008, dated 2015).

Key:
[1] = patients who received clopidogrel, study CAPRIE

solubility in water | frequency of gastro-intestinal bleedings [1] | gastro-intestinal bleedings having required a hospitalization [1] | Compound
almost null | – | – | COC(=O)[C@H](c1ccccc1Cl)N1CCc2sccc2C1 [clopidogrel free base, clopidogrel]
– | 2.0% | 0.7% | COC(=O)[C@H](c1ccccc1Cl)N1CCc2sccc2C1 [clopidogrel]
